Measured values reported in ChEMBL document CHEMBL1201862, “PubChem BioAssay data set” (2004).
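These data come from cells grown in 96-well plates and exposed to compound for 48 hours at five concentrations. Abbreviation: GI50, concentration required for 50% inhibition of growth.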 Active and inactive are the calls of the source. Rule as the data show it: active = GI50 up to about 1.1 µM and inactive = higher. Where a SMILES comes first, the peptide text is derived from it. [ ]: non-standard residue; d: D form. The star is where a group is joined. Chg = N[CH](C(=O)O)C1CCCCC1; Cbz = O=C(OCc1ccccc1)*; OBn = c1ccc(CO*)cc1

How the values were obtained:
Assay in all cases: NCI anticancer screen, dose series, 48 h
[1] = test system: A549
[2] = test system: CAKI-1
[3] = test system: HCC 2998
[4] = test system: HCT-116
[5] = test system: HCT-15
[6] = test system: HL-60
[7] = test system: IGROV-1
[8] = test system: KM12
[9] = test system: MDA-MB-231
[10] = test system: MOLT-4
[11] = test system: Malme-3M
[12] = test system: NCI-H460
[13] = test system: OVCAR-4
[14] = test system: OVCAR-8
[15] = test system: RPMI-8226
[16] = test system: RXF 393
[17] = test system: SW-620
[18] = test system: UO-31
[19] = test system: UACC-257

SMILES | GI50 [1] | GI50 [2] | GI50 [3] | GI50 [4] | GI50 [5] [µM] | GI50 [6] | GI50 [7] | GI50 [8] | GI50 [9] | GI50 [10] | GI50 [11] | GI50 [12] | GI50 [13] | GI50 [14] | GI50 [15] | GI50 [16] | GI50 [17] | GI50 [18] | GI50 [19]
CCOP(C)(=O)/C(Cc1ccc(OC)c(OC)c1)=N\O (stereo unspecified) | > 100 µM (inactive) | > 100 µM (inactive) | > 100 µM (inactive) | > 100 µM (inactive) | > 100 | > 100 µM (inactive) | > 100 µM (inactive) | > 100 µM (inactive) | > 100 µM (inactive) | > 100 µM (inactive) | > 100 µM (inactive) | > 100 µM (inactive) | > 100 µM (inactive) | > 100 µM (inactive) | > 100 µM (inactive) | > 100 µM (inactive) | > 100 µM (inactive) | > 100 µM (inactive) | 
NC1=Nc2cc(C(F)(F)F)ccc2Sc2nc3ccccc3n21 | > 56 µM (inactive) | 84.9 µM (inactive) | > 94.8 µM (inactive) | 3.73 µM (inactive) | > 100 | 3.15 µM (inactive) | > 25.7 µM (inactive) | > 37 µM (inactive) | 38.1 µM (inactive) | 4.24 µM (inactive) | > 86.1 µM (inactive) | 10.1 µM (inactive) | 17.7 µM (inactive) | 12.5 µM (inactive) | 6.25 µM (inactive) | > 53.5 µM (inactive) | > 100 µM (inactive) | > 20.5 µM (inactive) | 41.2 µM (inactive)
O=C(O)CSc1nnc(CCCCCCCCc2nnc(SCC(=O)O)o2)o1 | > 100 µM (inactive) | > 100 µM (inactive) | > 100 µM (inactive) | > 100 µM (inactive) | > 100 | > 100 µM (inactive) | > 100 µM (inactive) | > 100 µM (inactive) | > 100 µM (inactive) | > 100 µM (inactive) | > 100 µM (inactive) | > 100 µM (inactive) | > 100 µM (inactive) | 55.5 µM (inactive) | > 100 µM (inactive) | 38.5 µM (inactive) | > 100 µM (inactive) | > 100 µM (inactive) | > 100 µM (inactive)
COC(=O)[C@@H]1C[C@]2(Br)c3ccccc3N(S(=O)(=O)c3ccccc3)[C@@H]2N1C(=O)OC | > 100 µM (inactive) | 59.8 µM (inactive) | 84.3 µM (inactive) | > 100 µM (inactive) | 67.3 | > 100 µM (inactive) | > 100 µM (inactive) | > 100 µM (inactive) | > 100 µM (inactive) | > 100 µM (inactive) | > 100 µM (inactive) | > 100 µM (inactive) | 73.8 µM (inactive) | > 100 µM (inactive) | 93.1 µM (inactive) | 23 µM (inactive) | > 100 µM (inactive) | > 100 µM (inactive) | 0.0285 µM (active)
O=[N+]([O-])c1cc(F)ccc1S(=O)(=O)c1ccccc1 | > 10 µM (inactive) | > 10 µM (inactive) | > 10 µM (inactive) | > 10 µM (inactive) | > 10 | > 10 µM (inactive) | > 10 µM (inactive) | > 10 µM (inactive) | > 10 µM (inactive) | > 10 µM (inactive) | > 10 µM (inactive) | > 10 µM (inactive) | > 10 µM (inactive) | > 10 µM (inactive) | > 10 µM (inactive) | > 10 µM (inactive) | > 10 µM (inactive) |  | > 10 µM (inactive)
CC(C)(C)N/N=C(/Cc1nc2c3c(ccc2nc1O)C(=O)c1ccccc1C3=O)C(=O)NC1=C(Cl)C(=O)c2ccccc2C1=O | 18.3 µM (inactive) | 1.06 µM (active) | 17.9 µM (inactive) | 13.9 µM (inactive) | 4.26 | 10.3 µM (inactive) | 5.14 µM (inactive) | 2.7 µM (inactive) | 1.98 µM (inactive) | 23.2 µM (inactive) | 12.3 µM (inactive) | 5.42 µM (inactive) | 5.16 µM (inactive) | 10 µM (inactive) | 78.9 µM (inactive) | 6.18 µM (inactive) | 39.3 µM (inactive) | 4.91 µM (inactive) | 57.9 µM (inactive)
c1ccc2c(C3CCN(CCN4CCOCC4)C3)c[nH]c2c1 (stereo unspecified) | > 100 µM (inactive) | > 100 µM (inactive) | 47 µM (inactive) | > 100 µM (inactive) | > 100 | > 100 µM (inactive) | > 100 µM (inactive) | > 100 µM (inactive) | > 100 µM (inactive) |  | > 100 µM (inactive) | > 100 µM (inactive) | > 100 µM (inactive) | > 100 µM (inactive) | > 100 µM (inactive) | > 100 µM (inactive) | > 100 µM (inactive) | > 100 µM (inactive) | > 100 µM (inactive)
COC(=O)C(NC(=O)C(CC(=O)OCc1ccccc1)NC(=O)OCc1ccccc1)C1CCCCC1 (stereo unspecified) (Cbz-Asp(OBn)-[Chg]-OMe; configuration not given here) | > 100 µM (inactive) | > 100 µM (inactive) | > 100 µM (inactive) | > 100 µM (inactive) | > 100 | > 100 µM (inactive) | > 100 µM (inactive) | > 100 µM (inactive) | 84.3 µM (inactive) | 38.3 µM (inactive) | > 100 µM (inactive) | > 100 µM (inactive) | > 100 µM (inactive) | > 100 µM (inactive) | 48.2 µM (inactive) | > 100 µM (inactive) | > 100 µM (inactive) | 69.7 µM (inactive) | > 100 µM (inactive)
CCOC(=O)C1C(=O)CC(O)(c2ccccc2)C(C(=O)OCC)C1c1ccc(N(C)C)cc1 (stereo unspecified) | 35.5 µM (inactive) | 51.2 µM (inactive) | 34.4 µM (inactive) | 23.8 µM (inactive) | 34.7 | 8.18 µM (inactive) | 31.2 µM (inactive) | 20.3 µM (inactive) | 28.2 µM (inactive) | 23.5 µM (inactive) | 18.2 µM (inactive) | 20 µM (inactive) | 59.2 µM (inactive) | 20 µM (inactive) | 13.3 µM (inactive) | 14.7 µM (inactive) | 19.8 µM (inactive) | 49.8 µM (inactive) | 63.8 µM (inactive)
CC1CC[C@@]2(OC1)OC1C[C@H]3[C@@H]4CC[C@H]5CC(OC6OC(CO)C(OC7OC(CO)C(O)C(O)C7O)C(O)C6O)CCC5(C)[C@H]4CCC3(C)C1[C@@H]2C (stereo partly specified) | 9.35 µM (inactive) | 8.49 µM (inactive) | 5.85 µM (inactive) | 7.53 µM (inactive) | 12.6 | 8.87 µM (inactive) | 2.52 µM (inactive) | 8.18 µM (inactive) | 9.1 µM (inactive) | 9.14 µM (inactive) | 8.13 µM (inactive) | 9.04 µM (inactive) | 8.81 µM (inactive) | 8.45 µM (inactive) | 13.7 µM (inactive) | 10.7 µM (inactive) | 8.81 µM (inactive) | 11.1 µM (inactive) | 9.64 µM (inactive)
COc1cc(/C=C2/SC(c3ccccc3)N(c3ccc(Cl)cc3)C2=O)cc(OC)c1OC (stereo unspecified) | > 41.5 µM (inactive) | > 51.2 µM (inactive) | > 100 µM (inactive) | 0.897 µM (active) | 8.13 | 10.1 µM (inactive) | > 100 µM (inactive) | 5.46 µM (inactive) | > 100 µM (inactive) | 15.7 µM (inactive) | 27 µM (inactive) | 8 µM (inactive) | 7.98 µM (inactive) | > 100 µM (inactive) | 2.99 µM (inactive) | 49.7 µM (inactive) | 57.4 µM (inactive) | 10.9 µM (inactive) | 47.2 µM (inactive)
CC(C)(C)c1ccc(C(C)(C)C)c(N2C(=O)[C@@H]3[C@@H]4C=C[C@@H](C4)[C@]3(C)C2=O)c1 | 41 µM (inactive) | 22.2 µM (inactive) | 15.5 µM (inactive) | 15.5 µM (inactive) | 18.6 | 16.4 µM (inactive) | 18.6 µM (inactive) | 36.6 µM (inactive) | 28.4 µM (inactive) | 14.9 µM (inactive) | 21.9 µM (inactive) | 42 µM (inactive) | 13.6 µM (inactive) | 14.6 µM (inactive) | 14.7 µM (inactive) | 15.5 µM (inactive) | 21.1 µM (inactive) | 29.3 µM (inactive) | 23.1 µM (inactive)
Cc1ccccc1C(=O)N/N=C/c1ccc(Sc2nccn2C)c([N+](=O)[O-])c1 | > 100 µM (inactive) | 78.9 µM (inactive) | 45.3 µM (inactive) | 84.3 µM (inactive) | 66.8 | 44.3 µM (inactive) | 35.6 µM (inactive) | 66.7 µM (inactive) | 72.3 µM (inactive) | 54.6 µM (inactive) | 69.3 µM (inactive) | 49 µM (inactive) | 56.2 µM (inactive) | 72.1 µM (inactive) | 47.9 µM (inactive) | 74.3 µM (inactive) | > 100 µM (inactive) | > 100 µM (inactive) | > 100 µM (inactive)
[N-]=[N+]=NC(c1ccccc1)(c1ccccc1)c1ccccc1 | 17 µM (inactive) | 17.4 µM (inactive) | 15.8 µM (inactive) | 16 µM (inactive) | 18.1 | 17.2 µM (inactive) | 25 µM (inactive) | 18.2 µM (inactive) | 16.5 µM (inactive) | 16.1 µM (inactive) | 14.6 µM (inactive) | 16.6 µM (inactive) | 20.3 µM (inactive) | 17.3 µM (inactive) | 19.3 µM (inactive) | 15.7 µM (inactive) | 17.7 µM (inactive) | 16 µM (inactive) | 16 µM (inactive)
CCOC(=O)C1=NNC(C(=O)c2ccccc2)C1c1ccccc1 (stereo unspecified) | 19.1 µM (inactive) | 1.83 µM (inactive) | 1.96 µM (inactive) | 2.52 µM (inactive) | 2.15 | 0.644 µM (active) | 4.6 µM (inactive) | 6.87 µM (inactive) | 3.94 µM (inactive) | 3.54 µM (inactive) | 2.19 µM (inactive) |  | 7.4 µM (inactive) | 5.51 µM (inactive) | 3.85 µM (inactive) | 1.7 µM (inactive) | 1.75 µM (inactive) | 2.01 µM (inactive) | 2.61 µM (inactive)
